Laboratory results reported in US6403635B1, “Method of treating atherosclerosis or restenosis using microtubule stabilizing agent” (The United States of America as represented by the …, priority 1993, dated 2002).

Tests used:
[1] = test system: VSMC collagenase secretion; experiment: Gelatinase zymography of Boyden assay supernatants; type: cell-based, rat; settings: taxol range 30 pM to 100 nM
Procedure: Gelatinase zymography was performed on the superannuates removed after the 4 hour conclusion of the Boyden assays described above. Gelatin-degrading proteinases secreted into the media by VSMCs were analyzed by non-reducing sodium dodecyl sulfate-polyacrylamide gel electrophoresis in 10% polyacrylamide gels containing 0.1% (w/v) gelatin. Following electrophoresis, the gelatinases were renatured by incubating the gel for 30 min. at 23° C. in 2.5% (v/v) Triton X-100 followed by 18 hour incubation at 37° C. in 0.2 M NaCl, 5 mM CaCl2 0.02% Brij 35 (w/v), 50 mM Tris-HCI (pH 7.6). The gels were stained for 90 minutes with 0.5% Coomassie Brilliant Blue G-250 and destained with 10% acetic acid, 40% methanol. Gelatinolytic activity was indicated by a clear band against the background of the blue-stained gelatin.

[2] = test system: Vascular Smooth Muscle Cells (VSMCs); experiment: Chemoinvasion (Boyden chamber) assay, PDGF-BB as attractant; type: cell-based, rat
Procedure: (§1) Vascular Smooth Muscle Cells (VSMCs) were isolated by collagenase/elastase enzymatic digestion of the medial layers of the rat aorta obtained from 6 month old Wistar rats. The cells were maintained in culture with 10% fetal calf serum, high glucose DMEM, and amino acid supplement. Cell cultures were maintained at 37° C. in 5% CO2.
(§2) Chemoinvasion (Boyden chamber) assays were performed using modified Boyden chamber (Albini, et al. (1987) Cancer Res., 47:3239-3245), comprising an upper chamber separated from a lower chamber by a porous PVPF filter. PVPF filters (8 μm pore diameter, Nucleopore Filters, Pleasanton, Calif.) were coated and air dried consecutively with solutions containing 100 μg/ml type I collagen, 5 μg/ml fibronectin, and 5 μg reconstituted basement membrane (produced from the Englebreth-Holm-Swarm tumor (Kleinman, et al. (1986) Biochemistry, 25:312-318), producing a continuous 10 μm thick coating of matrix material. Boyden chambers were assembled by adding 10 ng/ml PDGF BB in DMEM to the lower (chemoattractant) chamber. Cells (approximately 200,000) suspended in DMEM containing 0.1% BSA were then added to the upper chamber. […] The chambers were then incubated for 4 hours at 37° C. in a 5% CO2 atmosphere. At the end of the incubation period, the cells were fixed and stained with hematoxylin and eosin. The cells on the upper surface (non-invaders) were mechanically removed and the cells on the underside of the filter (invaders) were counted under 400× magnification (four random fields were counted per filter and all experiments were run in triplicate, and each triplicate assay was repeated at least three times on separate occasions using different VSMC preparations). Chemotaxis was assayed in analogous fashion in the Boyden chambers described above, except that the reconstituted basement membrane was omitted.
as §1, with “VSMC's” for “Vascular Smooth Muscle Cells (VSMCs)”, “collagense/elastase” for “collagenase/elastase”
Chemoinvasion assays were performed using a modified Boyden chamber, consisting of an upper chamber separated from a lower chamber by a porous PVPF filter. PVPF filters (8 μm pore diameter, Nucleopore Filters Pleasanton, Calif.) were coated and air dried consecutively with solutions containing 100 μg/ml type I collagen, […] fibronectin, and 5 μg reconstituted basement membrane (produced from the Englebreth-Holm-Swarm tumor), producing a continuous 10 μm thick coating of matrix material. Boyden chambers were assembled with PDGF-BB 10 ng/ml in DMEM in the lower (chemoattractant) chamber, then cells (approximately 200,000) suspended in DMEM containing 0.1% BSA were added to the upper chamber. Some of the cells used in these assays were pretreated 18 hours with deuterium oxide (25%, 50%, or 75% v/v substitution for H2O) in culture. In the deuterium oxide-treated groups, ^2H2O substituted DMEM (v/v) was added to the upper and lower chambers at the same concentration as that used for pretreatment. The chambers were then incubated for 4 hours at 37° C. in a humidified 5% CO2 atmosphere. […] After the cells on the upper surface of the filter (non-invaders) were mechanically removed, the cells on the underside (invaders) were counted under 400 X magnification (four random fields were counted per filter and all experiments were run in triplicate).

[3] = test system: VSMC; experiment: Chemotaxis assay (Boyden chamber without basement membrane proteins), PDGF-BB as attractant; type: cell-based, rat; settings: filter coated only with fibronectin and collagen I
Procedure: as §2, with “Chemotaxis was assayed in analogous fashion in the Boyden chambers described above, except that the reconstituted basement membrane was omitted.” left out

[4] = test system: rat carotid artery; experiment: Balloon catheter injury of the rat carotid artery (restenosis model); type: in vivo, Wistar rats
Procedure: Under a protocol approved by the National Institute on Aging Animal Care and use Committee, 6 month Wistar rats from the GRC colony wee anesthetized with 20 mg/kg body weight phenobarbital, 2 mg/kg body weight ketamine, and 4 mg/kg body weight xylazine intraperitoneally. The left external carotid artery was cannulated with 2-French Fogarty embolectomy catheter, inflated with saline and passed three times up and down the common carotid artery to produce a distending, deendothelializing injury. […] Cross sections of the carotids were mounted on microscope slides and stained with hematoxylin and eosin stain. The image of the carotid artery was projected onto a digitizing board and the cross sectional areas of the intima and the media were measured. As indicated in the prior art (Ferns, G. A. A. et al. (1991) Science, 253:1129-1132) the rat carotid artery injury model of restenosis can be useful in the study of human restenosis, and indicate potential therapeutic action in humans.

[5] = test system: VSMC; experiment: [3H]thymidine incorporation in cultured VSMC
[6] = test system: c-fos mRNA expression; experiment: PDGF-BB-stimulated c-fos mRNA expression in cultured VSMC; type: cell-based, rat
[7] = test system: polymerized tubulin; experiment: Microtubule bundling in cultured VSMC (anti-tubulin antibody labelling); type: cell-based, rat
Text: In deuterium oxide-treated cells, ^2H2O (v/v) was substituted for water (H2O) in the preparation of the DMEM from concentrated stock. […], cells were fixed in 3.7% formalin, premeabilized with 1% Triton X-100, and polymerized tubulin was labelled with mouse anti-β-tubulin antibody (SMI 62 monoclonal antibody to polymerized β-tubulin, Paragon Biotec, Inc., Baltimore, Md.). […] Representative light photomicrographs from (FIG. 5A) control, and (FIG. 5B) 75% deuterium oxide treated VSMCs are shown in FIGS. 5A-5B.

[8] = test system: VSMC; experiment: Bromodeoxyuridine (BrDU) incorporation in cultured VSMC; type: cell-based, rat; settings: various 2H2O concentrations
Procedure: Incorporation of the thymidine analog, bromodeoxyuridine (BrDU) was measured to determine the effect of deuterium oxide on VSMC DNA synthesis. […] Following 20 hr incubation in 10% FCS+DMEM at various ^2H2O concentrations, 10 μM BrDU was added and the incubation continues for an additional 4 hr. […] The cells were incubated for 2 hr with 1N HCl to denature the DNA, and subsequently washed 4 times in PBS. Mouse monoclonal BrDU antibody (Boehringer Mannheim) in 2% BSA-PBS was incubated with cells for 1 hr. After PBS wash, goat anti-mouse antibody conjugated with alkaline phosphatase was added. Cell nuclei containing BrDU substituted for thymidine stained red with alkaline phosphatase substrate, while all other nuclei stained blue. The fraction of BrDU-positive nuclei was compared between control (defined as 100%) and that of the deuterium oxide-pretreated groups.

[9] = cross sectional area, 2 mg/kg i.p., 11 days after injury

Compound: CC(=O)O[C@H]1C(=O)[C@@]2(C)[C@H]([C@H](OC(=O)c3ccccc3)[C@]3(O)C[C@H](OC(=O)[C@H](O)[C@@H](NC(=O)c4ccccc4)c4ccccc4)C(C)=C1C3(C)C)[C@]1(OC(C)=O)CO[C@@H]1C[C@@H]2O [Taxol]
- level of VSMC collagenase secretion compared to control [1]: did not vary significantly
- inhibition of VSMC invasion at 30 pM ([2]; 30 pM (the lowest dose used)): significant inhibition
- inhibition of VSMC invasion at 100 nM ([2]; 100 nM taxol): essentially complete inhibition
- IC50 ([2]; Rattus norvegicus, VSMC, 18 h pretreatment, PDGF-BB attractant, 4 h incubation, read-out: half-maximal inhibitory concentration, VSMC invasion): 0.5 nM
- outcome of chemotaxis assay compared with chemoinvasion assay [3]: identical outcome
- reduction of neointimal area compared to vehicle treated animals ([4]; 2 mg/kg i.p. once daily, 11 days after injury): 70%
- Intima [4, 9]: 0.03 ± 0.01 mm^2
- Media [4, 9]: 0.16 ± 0.02 mm^2
- I/M ([4]; intima/media ratio, 2 mg/kg i.p., 11 days after injury): 0.18 ± 0.04
- discernible neointima in taxol-treated animals ([4]; several of the taxol-treated animals, denuded endothelium present): virtually no discernible neointimal
- inhibition of [3H]thymidine incorporation at 1 nM ([5]; 1 nM taxol): significant inhibition
- inhibition of [3H]thymidine incorporation at 100 nM ([5]; 100 nM taxol): essentially complete inhibition
- IC50 ([5]; Rattus norvegicus, VSMC, read-out: half-maximal inhibitory concentration, VSMC [3H]thymidine incorporation): 5 nM
- IC50 ([6]; Rattus norvegicus, cultured VSMC, read-out: half-maximal inhibitory concentration, PDGF-BB-stimulated c-fos mRNA expression): 1 nM
- inhibition of c-fos mRNA expression above 20 nM ([6]; above 20 nM taxol): essentially complete inhibition
- microtubule bundling in VSMC's cultured on plastic ([7]; 0.1, 1, 10 nM taxol, 18-hour pre-treatment): dose-dependent microtubule bundling

Compound: [2H]O[2H] [deuterium oxide]
- inhibition of VSMC Boyden chamber invasion at 75% 2H2O ([2]; 75% 2H2O): nearly complete inhibition
- half-maximal inhibition of PDGF-mediated VSMC Boyden chamber invasion ([2]; 18 h pretreatment, v/v substitution for H2O): 25 % 2H2O
- effect on cultured VSMC proliferation and DNA synthesis (BrDU incorporation) [8]: inhibited cultured VSMC proliferation and DNA synthesis in a dose-dependent fashion
- microtubule hyperpolymerization in cultured VSMCs ([7]; 18 hours with 25%, 50% or 75% deuterium oxide): dose-dependent microtubule hyperpolymerization
